Toxic doses and inconclusive results are not listed. Rule as the data show it: active = T/C of 150% or more; inactive = T/C below 125%.
Tested on: L1210 leukemia ip in BDF1 mice, survival T/C
Assay: NCI In Vivo Anticancer Drug Screen. Data for tumor model L1210 Leukemia (intraperitoneal) in B6D2F1 (BDF1) mice
Conditions: endpoint: mean survival time, higher = longer survival
Summary of the method: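 Transplantable tumor model; survival measured in treated vs vehicle control mice. Value = treated/control.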

[1] = dose: 100.0 mg/kg/injection, schedule: Q01DX001 (ip), vehicle: saline
[2] = dose: 200.0 mg/kg/injection, schedule: Q01DX001 (ip), vehicle: saline
[3] = dose: 400.0 mg/kg/injection, schedule: Q01DX001 (ip), vehicle: saline
[4] = dose: 100.0 mg/kg/injection, schedule: Q01DX009 (ip), vehicle: Klucel (hydroxypropylcellulose) (HPC)
[5] = dose: 200.0 mg/kg/injection, schedule: Q01DX009 (ip), vehicle: Klucel (hydroxypropylcellulose) (HPC)
[6] = dose: 400.0 mg/kg/injection, schedule: Q01DX009 (ip), vehicle: Klucel (hydroxypropylcellulose) (HPC)
[7] = dose: 100.0 mg/kg/injection, schedule: Q01DX001 (ip), vehicle: Klucel (hydroxypropylcellulose) (HPC)
[8] = dose: 100.0 mg/kg/injection, schedule: Q04DX003 (ip), vehicle: Klucel (hydroxypropylcellulose) (HPC)
[9] = dose: 200.0 mg/kg/injection, schedule: Q01DX001 (ip), vehicle: Klucel (hydroxypropylcellulose) (HPC)
[10] = dose: 200.0 mg/kg/injection, schedule: Q04DX003 (ip), vehicle: Klucel (hydroxypropylcellulose) (HPC)
[11] = dose: 400.0 mg/kg/injection, schedule: Q01DX001 (ip), vehicle: Klucel (hydroxypropylcellulose) (HPC)
[12] = dose: 400.0 mg/kg/injection, schedule: Q04DX003 (ip), vehicle: Klucel (hydroxypropylcellulose) (HPC)
[13] = dose: 100.0 mg/kg/injection, schedule: Q01DX009 (ip), vehicle: saline
[14] = dose: 200.0 mg/kg/injection, schedule: Q01DX009 (ip), vehicle: saline with Tween-80
[15] = dose: 400.0 mg/kg/injection, schedule: Q01DX009 (ip), vehicle: saline with Tween-80
[16] = dose: 100.0 mg/kg/injection, schedule: Q04DX002 (ip), vehicle: Klucel (hydroxypropylcellulose) (HPC)
[17] = dose: 200.0 mg/kg/injection, schedule: Q04DX002 (ip), vehicle: Klucel (hydroxypropylcellulose) (HPC)
[18] = dose: 100.0 mg/kg/injection, schedule: Q04DX003 (ip), vehicle: saline
[19] = dose: 200.0 mg/kg/injection, schedule: Q04DX003 (ip), vehicle: saline

Measured: T/C

COc1ccc(CN2CCCN(Cc3ccc(OC)cc3OC)C2c2ccc(OC)cc2OC)c(OC)c1
inactive: dose: 50.0 mg/kg/injection, schedule: Q01DX001 (ip), vehicle: carboxymethylcellulose (CMC) 93 % of control | dose: 100.0 mg/kg/injection, schedule: Q01DX001 (ip), vehicle: carboxymethylcellulose (CMC) 104 % of control | dose: 200.0 mg/kg/injection, schedule: Q01DX001 (ip), vehicle: carboxymethylcellulose (CMC) 93 % of control | dose: 400.0 mg/kg/injection, schedule: Q01DX001 (ip), vehicle: carboxymethylcellulose (CMC) 98 % of control

OCC1OC(n2c(N3CCCCC3)nc3ccccc32)C(O)C1O (stereo not given)
inactive: [1] 102 % of control | [2] 105 % of control | [3] 105 % of control

CCOC(=O)/C=C/C(=O)OCC
inactive: [4] 100 % of control | [5] 103 % of control | [6] 108 % of control

CCc1ccccc1NC(=O)Nc1ccc(Cl)cc1
inactive: dose: 100.0 mg/kg/injection, schedule: Q01DX009 (ip), vehicle: gum acacia 96 % of control | dose: 100.0 mg/kg/injection, schedule: Q04DX003 (ip), vehicle: gum acacia 95 % of control | dose: 200.0 mg/kg/injection, schedule: Q01DX009 (ip), vehicle: gum acacia 96 % of control | dose: 200.0 mg/kg/injection, schedule: Q04DX003 (ip), vehicle: gum acacia 98 % of control | dose: 400.0 mg/kg/injection, schedule: Q01DX009 (ip), vehicle: gum acacia 97 % of control | dose: 400.0 mg/kg/injection, schedule: Q04DX003 (ip), vehicle: gum acacia 97 % of control

Nc1nc(=S)[nH]c2nsnc12
inactive: dose: 100.0 mg/kg/injection, schedule: Q04DX003 (ip), vehicle: saline with Tween-80 98 % of control | dose: 200.0 mg/kg/injection, schedule: Q04DX003 (ip), vehicle: saline with Tween-80 96 % of control | dose: 400.0 mg/kg/injection, schedule: Q04DX003 (ip), vehicle: saline with Tween-80 103 % of control

CNCCCCOC
inactive: dose: 100.0 mg/kg/injection, schedule: Q04DX002 (ip), vehicle: saline 117 % of control | dose: 200.0 mg/kg/injection, schedule: Q04DX002 (ip), vehicle: saline 104 % of control

Cc1nc(N)nc(C)c1N=Nc1ccc(Br)cc1
inactive: dose: 100.0 mg/kg/injection, schedule: Q04DX003 (ip), vehicle: other 90 % of control | dose: 200.0 mg/kg/injection, schedule: Q04DX003 (ip), vehicle: other 102 % of control | dose: 400.0 mg/kg/injection, schedule: Q04DX003 (ip), vehicle: other 100 % of control

O=C(NC1CCCCC1)c1ccc(Cl)cc1
inactive: [7] 105 % of control | [8] 94 % of control | [9] 89 % of control | [10] 105 % of control | [11] 105 % of control | [12] 102 % of control

O=S(=O)(O)c1ccc(-c2nc3ccccc3[nH]2)cc1
inactive: dose: 50.0 mg/kg/injection, schedule: Q01DX001 (ip), vehicle: saline 104 % of control | [1] 98 % of control | [4] 101 % of control | [8] 95 % of control | [2] 93 % of control | [5] 96 % of control | [10] 103 % of control | [3] 95 % of control | [6] 96 % of control | [12] 98 % of control

O=C(O)CCN(CCC(=O)O)CCC(=O)O
inactive: dose: 44.0 mg/kg/injection, schedule: Q01DX009 (ip), vehicle: alkali diluted with saline 97 % of control | dose: 66.0 mg/kg/injection, schedule: Q01DX009 (ip), vehicle: saline 96 % of control | dose: 67.0 mg/kg/injection, schedule: Q01DX009 (ip), vehicle: alkali diluted with saline 98 % of control | dose: 100.0 mg/kg/injection, schedule: Q01DX009 (ip), vehicle: alkali diluted with saline 101 % of control | [13] 94 % of control | dose: 100.0 mg/kg/injection, schedule: Q04DX003 (ip), vehicle: alkali diluted with saline 100 % of control | dose: 150.0 mg/kg/injection, schedule: Q01DX009 (ip), vehicle: alkali diluted with saline 103 % of control | dose: 150.0 mg/kg/injection, schedule: Q01DX009 (ip), vehicle: saline 102 % of control | [14] 101 % of control | dose: 200.0 mg/kg/injection, schedule: Q04DX003 (ip), vehicle: alkali diluted with saline 108 % of control | [15] 100 % of control | dose: 400.0 mg/kg/injection, schedule: Q04DX003 (ip), vehicle: alkali diluted with saline 97 % of control

NC(=O)C(Cc1ccc(O)cc1)N(CCO)CCO (stereo not given)
inactive: [1] 101 % of control | [2] 101 % of control | [3] 104 % of control

O=C(NCCCl)NC1CCCCCC1
inactive: [4] 101 % of control | [5] 108 % of control | [6] 100 % of control

COc1cc2c(cc1OC)C(CNC(=O)/C=C/c1ccccc1)C2 (stereo not given)
inactive: [4] 106 % of control | [8] 101 % of control | [5] 101 % of control | [10] 94 % of control | [6] 95 % of control | [12] 97 % of control

O=S(=O)(Cl)c1ccc(F)cc1
inactive: dose: 100.0 mg/kg/injection, schedule: Q01DX009 (ip), vehicle: saline with Tween-80 98 % of control | [14] 96 % of control | [15] 90 % of control

CC/C(=C(\c1ccccc1)c1ccc(OCCN(C)C)cc1)c1ccccc1
inactive: [16] 95 % of control | [17] 92 % of control | dose: 400.0 mg/kg/injection, schedule: Q04DX002 (ip), vehicle: Klucel (hydroxypropylcellulose) (HPC) 100 % of control

c1ccc(-c2cnc3nc4ccccc4nc3n2)cc1
inactive: dose: 75.0 mg/kg/injection, schedule: Q01DX001 (ip), vehicle: other 87 % of control | dose: 150.0 mg/kg/injection, schedule: Q01DX001 (ip), vehicle: other 91 % of control | dose: 300.0 mg/kg/injection, schedule: Q01DX001 (ip), vehicle: other 97 % of control

COC(=O)C(NC(=O)C(NC(=O)Cc1ccccc1)SCc1ccccc1)=C(C)C (stereo not given)
inactive: [18] 95 % of control | [19] 89 % of control

CC(=O)/C=C/c1ccccc1O
inactive: dose: 75.0 mg/kg/injection, schedule: Q04DX002 (ip), vehicle: gum acacia 98 % of control | dose: 150.0 mg/kg/injection, schedule: Q04DX002 (ip), vehicle: gum acacia 100 % of control | dose: 300.0 mg/kg/injection, schedule: Q04DX002 (ip), vehicle: gum acacia 100 % of control

CC(=O)ONc1nc(C)c(CCC2OCCO2)c(SC(=N)N)n1
inactive: [13] 109 % of control | [18] 110 % of control | dose: 200.0 mg/kg/injection, schedule: Q01DX009 (ip), vehicle: saline 113 % of control | [19] 105 % of control | dose: 400.0 mg/kg/injection, schedule: Q01DX009 (ip), vehicle: saline 93 % of control | dose: 400.0 mg/kg/injection, schedule: Q04DX003 (ip), vehicle: saline 100 % of control

O=C(Nc1ccc(Br)cc1)Oc1ccccc1C(=O)OCc1ccccc1
inactive: [16] 97 % of control | [17] 87 % of control

CCCCCCCCCCCCCCCCOc1ccc(S(=O)(=O)N2CCOCC2)cc1[N+](=O)[O-]
inactive: dose: 75.0 mg/kg/injection, schedule: Q04DX003 (ip), vehicle: saline 103 % of control | [7] 97 % of control | dose: 150.0 mg/kg/injection, schedule: Q04DX003 (ip), vehicle: saline 93 % of control | [9] 104 % of control | dose: 300.0 mg/kg/injection, schedule: Q04DX003 (ip), vehicle: saline 95 % of control | [11] 104 % of control

c1ncc2[nH]cnc2n1
inactive: dose: 27.33 mg/kg/injection, schedule: Q01DX Z (ip), vehicle: carboxymethylcellulose (CMC) 96 % of control | dose: 54.67 mg/kg/injection, schedule: Q01DX Z (ip), vehicle: carboxymethylcellulose (CMC) 96 % of control | dose: 109.35 mg/kg/injection, schedule: Q01DX Z (ip), vehicle: carboxymethylcellulose (CMC) 108 % of control | dose: 218.7 mg/kg/injection, schedule: Q01DX Z (ip), vehicle: carboxymethylcellulose (CMC) 98 % of control

C=C(C)CN
inactive: dose: 50.0 mg/kg/injection, schedule: Q01DX009 (ip), vehicle: saline 109 % of control | [13] 117 % of control | [18] 93 % of control | [19] 106 % of control

Source: PubChem BioAssay AID248 (DTP/NCI, 2004)
